Measured values: patent publication US12655116B2, “Substituted isophthalic acid diamides” (Bayer Aktiengesellschaft, priority 2020, dated 2026)

Assays:
[1] = test system: AMARE; assay: Pre-emergence herbicidal action against AMARE; assay type: in vivo, Amaranthus retroflexus
From the text: (§1) Seeds of monocotyledonous and dicotyledonous weed plants and crop plants are laid out in sandy loam soil in wood-fiber pots and covered with soil. The compounds of the invention, formulated in the form of wettable powders (WP) or as emulsion concentrates (EC), are then applied to the surface of the covering soil in the form of an aqueous suspension or emulsion at a water application rate equivalent to 600 to 800 l/ha, with addition of 0.2% wetting agent. After the treatment, the pots are placed in a greenhouse and kept under good growth conditions for the trial plants. The damage to the test plants is scored visually after a test period of 3 weeks by comparison with untreated controls (herbicidal activity in percent (%): 100% activity=the plants have died, 0% activity=like control plants). […] The tables below illustrate, in an illustrative manner, the post-emergence herbicidal action of the compounds of the invention, the herbicidal activity being stated in percent.

[2] = test system: VIOTR; assay: Pre-emergence herbicidal action against VIOTR; assay type: in vivo, Viola tricolor
From the text: as §1

[3] = test system: AMARE; assay: Post-emergence herbicidal action against AMARE; assay type: in vivo, Amaranthus retroflexus; conditions: 20 g/ha, visual assessment about 3 weeks after treatment, 100% = plants have died, 0% = like control plants
Procedure: (§2) Seeds of monocotyledonous and dicotyledonous weed and crop plants are laid out in sandy loam soil in wood-fiber pots, covered with soil and cultivated in a greenhouse under good growth conditions. 2 to 3 weeks after sowing, the test plants are treated at the one-leaf stage. The compounds of the invention, formulated in the form of wettable powders (WP) or as emulsion concentrates (EC), are then sprayed onto the green parts of the plants in the form of an aqueous suspension or emulsion at a water application rate equivalent to 600 to 800 l/ha, with addition of 0.2% wetting agent. After the test plants have been left to stand in the greenhouse under optimal growth conditions for about 3 weeks, the action of the preparations is assessed visually in comparison to untreated controls (herbicidal action in percent (%): 100% activity=the plants have died, 0% activity=like control plants). […] The tables below illustrate, in an illustrative manner, the post-emergence herbicidal action of the compounds of the invention, the herbicidal activity being stated in percent.

[4] = test system: VIOTR; assay: Post-emergence herbicidal action against VIOTR; assay type: in vivo, Viola tricolor
Procedure: as §2

[5] = test system: ABUTH; assay: Pre-emergence herbicidal action against ABUTH; assay type: in vivo, Abutilon theophrasti; conditions: for Pre-emergence action against ABUTH (herbicidal activity in percent): dosage 20 g/ha, scored visually after 3 weeks vs untreated controls, 100% = plants have died, 0% = like control plants
From the text: as §1

[6] = test system: MATIN; assay: Pre-emergence herbicidal action against MATIN; assay type: in vivo, Matricaria inodora
From the text: as §1

[7] = test system: DIGSA; assay: Pre-emergence herbicidal action against DIGSA; assay type: in vivo, Digitaria sanguinalis
From the text: as §1

[8] = test system: ALOMY; assay: Pre-emergence herbicidal action against ALOMY; assay type: in vivo, Alopecurus myosuroides; conditions: 80 g/ha, pre-emergence, scored visually after 3 weeks vs untreated controls (100% = plants have died, 0% = like control plants)
From the text: as §1

[9] = test system: ECHCG; assay: Pre-emergence herbicidal action against ECHCG; assay type: in vivo, Echinochloa crus-galli; conditions: 80 g/ha
From the text: as §1

[10] = test system: SETVI; assay: Pre-emergence herbicidal action against SETVI; assay type: in vivo, Setaria viridis
From the text: as §1

[11] = test system: ECHCG; assay: Post-emergence herbicidal action against ECHCG; assay type: in vivo, Echinochloa crus-galli
Procedure: as §2

[12] = test system: PHBPU; assay: Post-emergence herbicidal action against PHBPU; assay type: in vivo, Pharbitis purpurea; conditions: dosage 20 g/ha
Procedure: as §2

[13] = test system: ABUTH; assay: Post-emergence herbicidal action against ABUTH; assay type: in vivo, Abutilon theophrasti; conditions: dosage 20 g/ha, visual assessment about 3 weeks after treatment vs untreated controls
Procedure: as §2

[14] = test system: SETVI; assay: Post-emergence herbicidal action against SETVI; assay type: in vivo, Setaria viridis; conditions: dosage 20 g/ha
Procedure: as §2

[15] = 80 g/ha, scored visually after 3 weeks vs untreated controls (100% = plants have died, 0% = like control plants)
[16] = 20 g/ha, scored visually after 3 weeks vs untreated controls, 100% = plants have died, 0% = like control plants

SMILES | Pre-emergence action against AMARE in % [1, 15] [%] | Post-emergence action at 20 g/ha against AMARE in % [3] [%] | Pre-emergence action against AMARE in % [1, 16] [%] | Pre-emergence action against ECHCG in % [9] [%] | Pre-emergence action against MATIN in % ([6]; dosage 80 g/ha) [%] | Post-emergence action against ECHCG in % ([11]; dosage 20 g/ha) [%] | Pre-emergence action against ABUTH (herbicidal activity) [5, 15] [%] | Pre-emergence action against DIGSA in % ([7]; dosage 80 g/ha) [%] | also measured
Cn1nnnc1NC(=O)c1ccc(C(F)(F)F)c(C(=O)NCC#N)c1Cl [Example 1-140] | 100 | 80 | – | – | – | – | – | – | Pre-emergence action against VIOTR in % ([2]; dosage 80 g/ha): 90%; Post-emergence action against VIOTR in % ([4]; 20 g/ha): 80%
Cn1nnnc1NC(=O)c1ccc(C(F)(F)F)c(C(=O)Nc2ccccc2)c1Cl [Example 1-143] | – | – | – | – | – | – | – | – | pest or weed control at 80 g/ha ([5]; Abutilon theophrasti, 504 h, 80 g/ha, scored visually after 3 weeks vs untreated controls (100% = plants have died, 0% = like control plants)): 100%; pest or weed control at 80 g/ha ([1]; Amaranthus retroflexus, 504 h, 80 g/ha, scored visually after 3 weeks vs untreated controls, 100% = plants have died, 0% = like control plants): 100%; pest or weed control at 20 g/ha ([6]; Tripleurospermum inodorum, 504 h, dosage 20 g/ha): 80%; pest or weed control at 80 g/ha ([6]; Tripleurospermum inodorum, 504 h, dosage 80 g/ha): 100%; pest or weed control at 80 g/ha ([7]; Digitaria sanguinalis, 504 h, dosage 80 g/ha): 80%
CSCCNC(=O)c1c(C(F)F)ccc(C(=O)Nc2nnnn2C)c1Cl [Example 1-157] | 100 | – | – | – | – | – | – | – | –
Cn1nnnc1NC(=O)c1ccc(C(F)F)c(C(=O)NCc2cccs2)c1Cl [Example 1-162] | 100 | 90 | 90 | 100 | 90 | 80 | – | – | Pre-emergence action against ALOMY (herbicidal activity) [8]: 90%; Pre-emergence action against SETVI in % ([10]; dosage 80 g/ha): 80%; Post-emergence action against PHBPU in % [12]: 80%
CCn1nnnc1NC(=O)c1ccc(C(F)F)c(C(=O)NCCSC)c1Cl [Example 2-157] | 90 | 90 | – | – | – | – | – | – | –
CCn1nnnc1NC(=O)c1ccc(C(F)F)c(C(=O)NCc2cccs2)c1Cl [Example 2-162] | 100 | 100 | 90 | 80 | 90 | – | – | – | Pre-emergence action against VIOTR in % ([2]; dosage 80 g/ha): 80%
CCn1nnnc1NC(=O)c1ccc(C(F)F)c(C(=O)NCCSC)c1C [Example 2-347] | – | – | – | – | – | – | 100 | – | –
N#CCNC(=O)c1c(C(F)(F)F)ccc(C(=O)Nc2nnco2)c1Cl [Example 5-254] | 100 | 80 | – | – | – | – | 100 | – | Pre-emergence action against VIOTR in % ([2]; dosage 80 g/ha): 90%
CNC(=O)c1c(C(F)F)ccc(C(=O)Nc2nnc(C)o2)c1OC [Example 6-49] | 100 | – | 80 | – | – | – | – | – | Pre-emergence action against VIOTR in % ([2]; dosage 20 g/ha): 80%; Pre-emergence action against VIOTR in % ([2]; dosage 80 g/ha): 80%; Post-emergence action against ABUTH in % [13]: 80%; Post-emergence action against VIOTR in % ([4]; 20 g/ha): 80%
CCNC(=O)c1c(C(F)F)ccc(C(=O)Nc2nnc(C)o2)c1OC [Example 6-50] | 100 | – | 100 | – | 80 | 80 | 90 | 100 | Post-emergence action against ABUTH in % [13]: 80%; Post-emergence action against VIOTR in % ([4]; 20 g/ha): 80%
COc1c(C(=O)Nc2nnc(C)o2)ccc(C(F)F)c1C(=O)NC1CC1 [Example 6-51] | 100 | – | 80 | – | – | 80 | 100 | 100 | –
CSc1c(C(=O)Nc2nnc(C)o2)ccc(C(F)(F)F)c1C(=O)NC1CC1 [Example 6-60] | 100 | 100 | – | 80 | 90 | 90 | 90 | – | Post-emergence action against ABUTH in % [13]: 90%
CSc1c(C(=O)Nc2nnc(C)o2)ccc(C(F)F)c1C(=O)NC1CC1 [Example 6-76] | 100 | 100 | – | – | 90 | 80 | – | – | Pre-emergence action against SETVI in % ([10]; dosage 80 g/ha): 80%; Post-emergence action against SETVI in % [14]: 80%
Cc1nnc(NC(=O)c2ccc(Br)c(C(=O)NCC3CC3)c2Cl)o1 [Example 6-143] | 100 | – | 100 | – | – | – | 100 | 100 | Pre-emergence action against ABUTH (herbicidal activity in percent) [5]: 100%
Cc1nnc(NC(=O)c2ccc(Br)c(C(=O)NCC(F)(F)F)c2Cl)o1 [Example 6-144] | 100 | – | 90 | 100 | 80 | 80 | 90 | 100 | Pre-emergence action against SETVI in % ([10]; dosage 80 g/ha): 90%; Pre-emergence action against DIGSA in % ([7]; dosage 20 g/ha): 90%
Cc1nnc(NC(=O)c2ccc(C(F)F)c(C(=O)NCC3CC3)c2Br)o1 [Example 6-167] | 100 | 100 | 100 | 100 | 90 | 80 | 100 | 90 | Pre-emergence action against ABUTH (herbicidal activity in percent) [5]: 90%; Pre-emergence action against SETVI in % ([10]; dosage 20 g/ha): 80%; Pre-emergence action against SETVI in % ([10]; dosage 80 g/ha): 80%; Pre-emergence action against VIOTR in % ([2]; dosage 20 g/ha): 90%; Pre-emergence action against VIOTR in % ([2]; dosage 80 g/ha): 100%
Cc1nnc(NC(=O)c2ccc(C(F)(F)F)c(C(=O)NCC(F)F)c2C2CC2)o1 [Example 6-230] | 100 | 90 | 100 | 80 | 80 | – | 90 | 80 | Post-emergence action against PHBPU in % [12]: 80%
CNC(=O)c1c(C(F)F)ccc(C(=O)Nc2nnc(C)o2)c1C1CC1 [Example 6-231] | 100 | 90 | – | – | 80 | – | – | 90 | Pre-emergence action against DIGSA in % ([7]; dosage 20 g/ha): 80%; Post-emergence action against VIOTR in % ([4]; 5 g/ha): 90%; Post-emergence action against VIOTR in % ([4]; 20 g/ha): 90%
Cc1nnc(NC(=O)c2ccc(C(F)F)c(C(=O)NC3CC3)c2C2CC2)o1 [Example 6-233] | 80 | – | – | – | – | 80 | – | 90 | –
Cc1nnc(NC(=O)c2ccc(Br)c(C(=O)NC(C)C3CC3)c2Cl)o1 (stereo not shown) [Example 6-257] | 100 | – | – | 80 | 90 | 90 | 100 | 100 | Pre-emergence action against MATIN in % ([6]; dosage 20 g/ha): 80%; Post-emergence action against ECHCG in % ([11]; dosage 5 g/ha): 80%
Cc1nnc(NC(=O)c2ccc(C(F)F)c(C(=O)NCC(=O)N(C)C)c2Cl)o1 [Example 6-265] | 80 | – | – | – | – | – | – | – | –
Cc1nnc(NC(=O)c2ccc(C(F)F)c(C(=O)Nc3ccccc3)c2Cl)o1 [Example 6-266] | 100 | 100 | 90 | – | 80 | – | 80 | – | Post-emergence action against PHBPU in % [12]: 80%
